Measurements taken from PubChem BioAssay AID463229 (Broad Institute, 2010).
“And” between values parts separate entries of the source, which are not always exact repeats. Equal values may be shown once. The source made the active and inactive calls.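 How the source made its calls: active means compounds raising the signal whose fitted half-maximal concentration is at or below their top tested dose (cut at about 25 µM in these data); inconclusive means flat fit at 30 to 70% activity, or a poor fit; inactive means the rest.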

System: INS-1E rat beta cells, no cytokines, CellTiter-Glo ATP, 48 h
Assay: cytokine-free beta-cell viability effect – INS-1E rat cells, ATP luminescence, cherry pick, counter-screen for beta-cell apoptosis protection project, dose response (AID 463229)

| Compound | AC50 |
| --- | --- |
| CN1/C(=C\C=C2/SC(=S)NC2=O)C(C)(C)c2ccccc21 | 3.38 µM |
| COc1ccc(O)c(/C=N/NC(=S)Nc2cccnc2)c1 | 15.6 µM |
| Cc1csc2c(N3CCN(C(=O)c4ccc(C(C)(C)C)cc4)CC3)ncnc12 | 14.9 µM |
| CCCCCCC(=O)N1C/C=C\C(c2ccc(OC)cc2)N(Cc2ccc(F)cc2)C(=O)[C@H]1Cc1ccccc1 (stereo partly specified) | 5.73 µM |
| O=C(CSC1=NCCS1)Nc1ccnc2ccccc12 | 12.5 µM |
| COc1cc(C(=O)Oc2ccccc2/C=N/NC(=O)c2ccc(C)c(Cl)c2)cc(OC)c1OC | 12.6 µM |
| CC(=O)Nc1ccc(S(=O)(=O)Nc2ccc(N3CCCCC3)cc2)cc1 | 4.33 µM |
| Clc1ccc2c(N/N=C/c3cccc(Br)c3)ccnc2c1 | 10.7 µM |
| NC(=NCCCCCCN=C(N)/N=C(\N)Nc1ccc(Cl)cc1)/N=C(\N)Nc1ccc(Cl)cc1 | 5 µM and 5.71 µM |
| Cc1cccc(OCc2n(CC(=O)OC3CC(C)CCC3C(C)C)c3ccccc3[n+]2C)c1 (stereo unspecified) | 4.12 µM |
| Cc1cccc(/C=C/C(=O)c2ccc([N+](=O)[O-])o2)c1 | 4.26 µM |
| Cc1cc(C(=O)CSc2nc3ccccc3c(=O)n2C)c(C)n1Cc1ccc2c(c1)OCO2 | 2.07 µM |
| CCc1cc[n+](C2=C([O-])c3ccccc3C(=O)/C2=N\S(=O)(=O)c2cccs2)cc1 | 9.35 µM |
| Cc1noc(-c2ccc(C(F)(F)F)cc2)c1NC(=O)Nc1ccc(Cl)cc1 | 7.7 µM |
| Cc1ccc(S(=O)(=O)N2CCN(c3ncnc4ccccc34)CC2)cc1 | 6.28 µM |
| Cc1nn(-c2nc3ccccc3[nH]2)c(=O)c2ccccc12 | 1.31 µM |
| CN1CCN(c2ccc(CNS(=O)(=O)Cc3cccc(C(F)(F)F)c3)cc2)CC1 | 8.93 µM |
| CCCCSc1ccc(NC(=O)c2cccnc2)cc1 | 14.7 µM |
| Cc1cc(-c2n[nH]c(=S)n2/N=C/C(Br)=C/c2ccccc2)n[nH]1 | 15.6 µM |
| O=C(c1cc(COc2cccc3cnccc23)on1)N1CCCC(CCCO)C1 (stereo unspecified) | 2.04 µM |
| CCCCCCCCCC[N+](C)(C)CC/C=C1/c2ccccc2Sc2ccc(Cl)cc21 | 7.99 µM |
| Cc1ccc(S(=O)(=O)/N=C2/C=C(Sc3ncn[nH]3)C(=O)c3ccccc32)cc1 | 8.08 µM |
| Cc1nnc2ccc(Oc3ccc(-c4ccccc4)cc3)nn12 | 8.92 µM |

| Compound | AC50 |
| --- | --- |
| COc1cnc(-c2ccccn2)nc1N(C)C | 21.7 µM |
| Cn1c(=O)[nH]c(=O)c2c1nc(N1CCN(C(c3ccccc3)c3ccccc3)CC1)n2CCO | 10.8 µM |
| COc1cnc(-c2ccccn2)nc1Oc1ccc(C(C)(C)C)cc1 | 13.7 µM |
| O=C(N/N=C/c1ccc([N+](=O)[O-])o1)c1ccc(O)cc1 | 7.45 µM |
| Cc1cc(C)c2nc(NNC(=O)c3ccc(S(=O)(=O)N4CCc5ccccc5C4)cc3)sc2c1 | 3.39 µM |
| COc1ccc(C(=O)N(C)c2ccccc2C(=O)NCCc2ccccc2)cc1 | 7.85 µM |
| COc1cccc(/C=N/NC(=O)c2c(C)nc3ccc(Br)cn23)c1O | 3.16 µM |
| CCOc1ccc(-n2c(-c3ccc(OC)cc3)c[n+]3c2CCCCC3)cc1 | 0.289 µM |
| Cc1ccc(F)c([C@H]2C3C=CCC(c4ccccc4)C3C(=O)N2Cc2ccccc2)c1 (stereo partly specified) | 14.4 µM |
| Cc1ccccc1NC(=S)N/N=C/c1ccc(O)cc1O | 14.6 µM |
| COc1ccccc1/C=C1\SC(=O)N(CCC(=O)NCCCn2ccnc2)C1=O | 8.2 µM |
| COc1ccc2[nH]c(C(=O)N/N=C/c3ccc(O)cc3O)cc2c1 | 2.08 µM |
| O=C(/C=C/c1cccc(Cl)c1)c1ccc([N+](=O)[O-])o1 | 3.68 µM |
| c1ccc(Nc2nc(NCc3ccco3)c3ccccc3n2)cc1 | 8.02 µM |
| Cc1cccc(CNc2ncnc3ccc(-c4ccc5c(c4)OCCO5)cc23)c1 | 7.27 µM |
| CC(NC(=S)NC1CCCCC1)c1ccc(C(C)(C)C)cc1 (stereo unspecified) | 11.2 µM |
| COc1ccc(O)c(/C=N/NC(=O)c2ccc(CSc3nc(C)cc(C)n3)cc2)c1 | 11.2 µM |
| c1ccc(CCNc2nc(-c3ccccn3)nc3ccccc23)cc1 | 4.92 µM |
| CCn1c(=O)c(C(=O)Nc2nc3ccccc3[nH]2)c(O)c2ccccc21 | 6.03 µM |
| CCOc1cccc(/C=N/NC(=O)c2cc(C3CC3)[nH]n2)c1O | 7.83 µM |
| C/C(=N\NC(=O)c1cc(C2CC2)nc2ccccc12)c1ccc(O)cc1O | 5.61 µM |
| O=C(N/N=C/c1ccccc1O)/C(=C/c1ccccc1)CCO | 7.67 µM |
| Cc1[nH]c2ccccc2c1CN1CCC(Cc2ccccc2)CC1 | 3.99 µM |

| Compound | AC50 |
| --- | --- |
| O=C(Nc1ccc(Cl)c(Cl)c1)N1CCSC1c1ccco1 (stereo unspecified) | 14.2 µM |
| CC(C)c1ccc(/C=C(\c2nc3ccccc3[nH]2)S(=O)(=O)c2ccccc2)cc1 | 4.54 µM |
| O=[N+]([O-])c1ccc(-c2nc3ccc([N+](=O)[O-])cc3[nH]2)cc1 | 6.93 µM |
| CCc1ccc(OC)c(S(=O)(=O)Nc2ccc(Cc3ccncc3)cc2)c1 | 6.36 µM |
| Cc1ccc(NC(=O)c2ccccc2NS(=O)(=O)c2ccc(Cl)s2)cc1 | 5.78 µM |
| CCN(CC)c1ccc(/C=N/NC(=O)CCC(=O)NCc2ccccc2)c(O)c1 | 7.22 µM |
| O=C(NCC1COc2ccccc2O1)c1cccc(S(=O)(=O)NCc2ccccc2)c1 (stereo unspecified) | 8.8 µM |
| Cc1ccc(-c2cn(-c3ccccc3)c3[n+]2CCCS3)cc1 | 1.97 µM and 2.98 µM |
| COc1ccc(N/N=C(/N=Nc2nc(C)cc(=O)[nH]2)c2ccccc2)cc1 | 1.78 µM |
| Cc1ccc(/C=N/Nc2ccnc3cc(Cl)ccc23)c(C)c1 | 13.4 µM |
| Oc1c(Br)cc(Br)cc1/C=N/Nc1ccc(Cl)nn1 | 1.21 µM |
| COc1cc2sc(-c3ccccc3OC)c(-c3ccc(OCCN4CCCCC4)cc3)c2cc1OC | 7.57 µM |
| Cc1ccccc1C(=O)Nc1cccc(C(=O)N/N=C/c2cc(Cl)cc([N+](=O)[O-])c2O)c1 | 13.3 µM |
| Cc1cccc(Nc2nc(N)c([N+](=O)[O-])c(N3CC(C)CC(C)C3)n2)c1 (stereo unspecified) | 14.8 µM |
| CCCNC(=O)c1ccc2c(=O)c(O)c(-c3ccc(C)cc3)[nH]c2c1 | 8.71 µM |
| O=C(CCCc1nc(-c2ccc(Cl)cc2)no1)NC1CCCC1 | 13.5 µM |
| COC(=O)[C@H](CC(C)C)N(Cc1ccccc1)S(=O)(=O)N(Cc1ccc(OC)cc1)[C@@H](CC(C)C)C(=O)OC | 5.08 µM |
| CN(C)CC(C(=O)c1ccccc1)c1ccccc1 (stereo unspecified) | 11.8 µM |
| Cc1cc(C)c2sc(NNC(=O)c3ccc(S(=O)(=O)N4CCc5ccccc5C4)cc3)nc2c1 | 3.38 µM |
| O=C(NNc1ccnc2cc(Cl)ccc12)C1CCCCC1 | 2.53 µM |
| CC1(C)N=C(N)N=C(N)N1c1ccc(OCCCOc2ccccc2)c(Cl)c1 | 0.913 µM |
| O=C1/C(=C\c2cccnc2)CN(Cc2ccccc2)C/C1=C\c1cccnc1 | 7.58 µM |
| CCn1cc(/C=C/c2cc[n+](C)cc2)c2ccccc21 | 4.44 µM |

| Compound | AC50 |
| --- | --- |
| Cc1ccc([N+](=O)[O-])c(OCCN2CCCCCC2)c1 | 7.14 µM |
| COC1=CC(=O)[C@]2(C=C1OC)OC[C@@H]1Oc3c(ccc4c3C=CC(C)(C)O4)C(=O)[C@@H]12 | 1.07 µM |
| CC[N+]1=C(C)C(C)(C)c2cc(C)ccc21 | 8.15 µM |
| O=C(N=Nc1c(O)n(Cc2ccccc2)c2ccccc12)c1cc2ccccc2cc1O | 8.07 µM |
| COc1ccc(-c2nc(NC(=O)c3cc(C(C)(C)C)nn3C)sc2C)cc1 | 17.6 µM |
| CCN1CCN(Cc2ccc(NC(=O)c3cc(NC(=O)c4cnn(-c5ccccc5)c4N)cc(OC)c3)cc2C(F)(F)F)CC1 | 15.3 µM |
| Cc1ccccc1NC1=C/C(=N\S(=O)(=O)c2ccc(C(=O)O)cc2)c2ccccc2C1=O | 12 µM |
| N=c1c2c(-c3ccccc3)c(-c3ccccc3)n(Cc3ccco3)c2ncn1CCCN1CCOCC1 | 16.2 µM |
| O=C(Nc1ccc(-c2nc3ccccc3o2)cc1)c1ccc(N2CCOCC2)c([N+](=O)[O-])c1 | 5.65 µM |
| C/C(=N\NC(=O)Cc1ccc(Cl)cc1)c1ccccn1 | 4.89 µM |
| [O-][N+]1=c2ccc(Nc3ccccc3)cc2=NC12CCCCC2 | 12.5 µM |
| CCCSc1nsc(NC(=O)Nc2ccc(F)cc2F)n1 | 6.99 µM |
| FC(F)(F)c1cnc(NNC(=S)Nc2ccccc2Cl)c(Cl)c1 | 7.03 µM |
| COc1cccc(/C=N/NC(=O)c2ccoc2C)c1O | 11 µM |
| CCOC(=O)c1ccc(NC(=O)Cn2cnc3cc(C)c(C)cc32)cc1 | 5.23 µM |
| CCc1cc(SC#N)cc(C)c1NC(=O)CCl | 4.52 µM |
| O=C(c1cccnc1)N(c1cc2sc(=O)oc2c2ccccc12)S(=O)(=O)c1ccccc1 | 15.5 µM |
| CCCCNC1=CC(=O)C(=O)c2ccccc21 | 7.75 µM |
| Cc1ccc(O)c(NC(=S)NC(=O)c2ccc(-c3ccc(Cl)cc3)o2)c1 | 23.9 µM |
| CC(C)C[C@H]1CN=C(Nc2ccccc2)N1CCc1ccc(F)cc1 | > 26 µM (inactive) |
| CC1=C/C(=N\OS(=O)(=O)c2ccccc2)C(C(C)C)=CC1=O | 6.84 µM |
| COc1cccc(C(NC(C)=O)c2ccc3cccnc3c2O)c1 (stereo unspecified) | 3.78 µM |
| O=[N+]([O-])c1ccc(O)c(-c2cc(C(F)(F)F)nc(-c3ccccc3)n2)c1 | 1.59 µM |

| Compound | AC50 |
| --- | --- |
| COc1ccc(C2CC(c3ccc4ccccc4c3OC(C)=O)=NN2C(C)=O)cc1 (stereo unspecified) | 8.47 µM |
| O=C(C#Cc1ccccc1)c1ccco1 | 7.8 µM |
| CCN(CC)Cc1c(O)ccc2c1O/C(=C\C=C\c1ccccc1)C2=O | 14.4 µM |
| COC(=O)c1ccc(NC(=O)c2nc(S(=O)(=O)Cc3cccc(C)c3)ncc2Cl)cc1 | 10.8 µM |
| O=C(OCn1ncc(Br)c(Br)c1=O)c1ccc(F)cc1 | 5.09 µM |
| CC(Nc1ncnc2ccccc12)c1ccccc1 (stereo unspecified) | 3.58 µM |
| O=c1c2c(nc3c(-c4ccc(Cl)cc4)c[nH]n13)CCCC2 | 7.43 µM |
| Oc1ccc(N=Nc2ccc3c(c2)OCCO3)c2ncccc12 | 3.75 µM |
| Oc1ccccc1C(Nc1nccs1)c1ccc2cccnc2c1O (stereo unspecified) | 4.91 µM |
| Cc1ccc(-c2nn(-c3ccccc3)cc2/C=N/NC(=O)c2ccc(Br)o2)cc1 | 0.569 µM |
| CCC(=O)NC(c1ccc(C)cc1)c1cc([N+](=O)[O-])c2cccnc2c1O (stereo unspecified) | 13.8 µM |
| CCC(=O)NC(c1cc(Cl)c2cccnc2c1O)C(C)C (stereo unspecified) | 7.3 µM |
| Cc1ccc(NC(=O)COc2ccc(N(C)C(=O)C(C)(C)C)cc2)cc1S(=O)(=O)N1CCCCC1 | 5.78 µM |
| CC1=C(C#N)C(C(F)(F)F)(C(F)(F)F)N=C(c2ccco2)N1 | 12.8 µM |
| O=C(Cn1c(-c2ccccc2)c[n+]2ccsc12)c1ccc([N+](=O)[O-])cc1 | 6.04 µM |
| CCC(=O)NC(c1cccs1)c1cc(Cl)c2cccnc2c1O (stereo unspecified) | 5.49 µM |
| O=[N+]([O-])c1c(Nc2ccccn2)cc(Cl)c2nonc12 | 7.39 µM |
| Cc1ccc2c(c1)N(C)/C(=C/c1cccc[n+]1CCO)S2 | 3.18 µM |
| C/C(=N\NC(=O)C(C)Oc1ccc([N+](=O)[O-])cc1)c1ccccn1 (stereo unspecified) | 4.2 µM |
